Experimental data from patent US9783527B2, “Indazole ureas and method of use” (AbbVie Inc., priority 2014, dated 2017).

Legend:
human Nav1.7 = human Nav1.7 (Homo sapiens (Human), UniProt Q15858); assay: FRET-based membrane potential assay, recombinant human sodium channel Nav1.7; format: cell-based; conditions: HEK293 cells stably expressing recombinant human Nav1.7; depolarization with veratridine (EC80) + scorpion venom
Summary of the method: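 IC50 derived by four-parameter Hill fit of percent inhibition of depolarization, measured as peak F440-480/F565-625 ratio over baseline. Stable human Nav1.7 HEK293 cells, dye-loaded with CC2-DMPE and DiSBAC2(3)/VABSC-1 at room temperature, received compound 3 min ahead of veratridine (EC80) plus scorpion venom.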

[1] = system: MIA-induced osteoarthritic pain in rats; assay: Osteoarthritic (OA) pain induced by sodium monoiodoacetate (MIA), hind limb grip force; format: in vivo, rat; conditions: male Sprague Dawley rats, grip force 20 days after MIA injection
Method: Osteoarthritic (OA) Pain Induced by Sodium Monoiodoacetate (MIA)
Pain behavior was assessed by measurement of hind limb grip force (GF) in adult osteoarthritic rats. Male Sprague Dawley rats, obtained from Charles River Laboratories, (Wilmington, Mass.), weighing 150-175 g, were injected in the unilateral knee join with a single intra-articular injection of sodium monoiodoacetate (MIA, 3 mg/rat). All rats were tested at 20 days following MIA injection. A behavioral measure of activity-induced pain was carried out. Measurements of the peak hind limb grip force were conducted by recording the maximum compressive force (CFmax), in grams of force, exerted on a hind limb strain gauge setup, in a commercially available grip force measurement system (Columbus Instruments, Columbus, Ohio).
During testing, each rat was gently restrained by grasping it around its rib cage and then allowed to grasp the wire mesh frame attached to the strain gauge. The experimenter then moved the animal in a rostral-to-caudal direction until the grip was broken. Each rat was sequentially tested twice at an approximately 2-3 minute interval to obtain a raw mean grip force (CFmax). This raw mean grip force data was in turn converted to a maximum hindlimb cumulative compressive force (CFmax), as the grams of force/kg of body weight, for each animal.
For evaluating the compound effects, the hind limb grip force was conducted 20 days following the intra-articular injection of MIA. A group of age-matched nave (not injected with MIA) animals was added as a comparator to the drug-dosed groups. The vehicle control response for each group of MIA-treated animals was defined as the 0% response (0% effect), whereas the nave control group was defined as the normal response and as 100% effect. The % effect for each dose group was expressed as % return of response to normalcy, compared to the nave group. A percent maximal possible effect (% MPE) of testing compound was calculated according to the formula: (Treatment CFmax−Vehicle CFmax)/Vehicle CFmax]×100). Higher % effect numbers indicate increased relief from the pain in the model, with 100% indicating a return to the level of response seen in normal (non-osteoarthritic) animals. All experiments evaluating drug effects in this model were conducted in a randomized blinded fashion.
The animals were housed in Association for Assessment and Accreditation of Laboratory Animal Care (AAALAC) approved facilities at AbbVie Inc. in a temperature-regulated environment under a controlled 12-hour light-dark cycle, with lights on at 6:00 a.m. Food and water were available ad libitum at all times except during testing. All testing was done following procedures outlined in protocols approved by AbbVie Inc.'s Institutional Animal Care and Use Committee.

human Nav1.8 = human Nav1.8 (Homo sapiens (Human), UniProt Q9Y5Y9); assay: FRET-based membrane potential assay, recombinant human sodium channel Nav1.8; format: cell-based; conditions: HEK293 cells stably expressing recombinant human Nav1.8; depolarization with veratridine (EC80) + scorpion venom
Summary of the method: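 HEK293 cells stably expressing Nav1.8 were loaded with CC2-DMPE/DiSBAC2(3) FRET voltage dyes. Compounds were added 3 min before depolarization with EC80 veratridine plus scorpion venom. The F440-480/F565-625 ratio was read on FLIPR; IC50 came from four-parameter Hill fits.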

human Nav1.7, sequence (Q15858 whole entry): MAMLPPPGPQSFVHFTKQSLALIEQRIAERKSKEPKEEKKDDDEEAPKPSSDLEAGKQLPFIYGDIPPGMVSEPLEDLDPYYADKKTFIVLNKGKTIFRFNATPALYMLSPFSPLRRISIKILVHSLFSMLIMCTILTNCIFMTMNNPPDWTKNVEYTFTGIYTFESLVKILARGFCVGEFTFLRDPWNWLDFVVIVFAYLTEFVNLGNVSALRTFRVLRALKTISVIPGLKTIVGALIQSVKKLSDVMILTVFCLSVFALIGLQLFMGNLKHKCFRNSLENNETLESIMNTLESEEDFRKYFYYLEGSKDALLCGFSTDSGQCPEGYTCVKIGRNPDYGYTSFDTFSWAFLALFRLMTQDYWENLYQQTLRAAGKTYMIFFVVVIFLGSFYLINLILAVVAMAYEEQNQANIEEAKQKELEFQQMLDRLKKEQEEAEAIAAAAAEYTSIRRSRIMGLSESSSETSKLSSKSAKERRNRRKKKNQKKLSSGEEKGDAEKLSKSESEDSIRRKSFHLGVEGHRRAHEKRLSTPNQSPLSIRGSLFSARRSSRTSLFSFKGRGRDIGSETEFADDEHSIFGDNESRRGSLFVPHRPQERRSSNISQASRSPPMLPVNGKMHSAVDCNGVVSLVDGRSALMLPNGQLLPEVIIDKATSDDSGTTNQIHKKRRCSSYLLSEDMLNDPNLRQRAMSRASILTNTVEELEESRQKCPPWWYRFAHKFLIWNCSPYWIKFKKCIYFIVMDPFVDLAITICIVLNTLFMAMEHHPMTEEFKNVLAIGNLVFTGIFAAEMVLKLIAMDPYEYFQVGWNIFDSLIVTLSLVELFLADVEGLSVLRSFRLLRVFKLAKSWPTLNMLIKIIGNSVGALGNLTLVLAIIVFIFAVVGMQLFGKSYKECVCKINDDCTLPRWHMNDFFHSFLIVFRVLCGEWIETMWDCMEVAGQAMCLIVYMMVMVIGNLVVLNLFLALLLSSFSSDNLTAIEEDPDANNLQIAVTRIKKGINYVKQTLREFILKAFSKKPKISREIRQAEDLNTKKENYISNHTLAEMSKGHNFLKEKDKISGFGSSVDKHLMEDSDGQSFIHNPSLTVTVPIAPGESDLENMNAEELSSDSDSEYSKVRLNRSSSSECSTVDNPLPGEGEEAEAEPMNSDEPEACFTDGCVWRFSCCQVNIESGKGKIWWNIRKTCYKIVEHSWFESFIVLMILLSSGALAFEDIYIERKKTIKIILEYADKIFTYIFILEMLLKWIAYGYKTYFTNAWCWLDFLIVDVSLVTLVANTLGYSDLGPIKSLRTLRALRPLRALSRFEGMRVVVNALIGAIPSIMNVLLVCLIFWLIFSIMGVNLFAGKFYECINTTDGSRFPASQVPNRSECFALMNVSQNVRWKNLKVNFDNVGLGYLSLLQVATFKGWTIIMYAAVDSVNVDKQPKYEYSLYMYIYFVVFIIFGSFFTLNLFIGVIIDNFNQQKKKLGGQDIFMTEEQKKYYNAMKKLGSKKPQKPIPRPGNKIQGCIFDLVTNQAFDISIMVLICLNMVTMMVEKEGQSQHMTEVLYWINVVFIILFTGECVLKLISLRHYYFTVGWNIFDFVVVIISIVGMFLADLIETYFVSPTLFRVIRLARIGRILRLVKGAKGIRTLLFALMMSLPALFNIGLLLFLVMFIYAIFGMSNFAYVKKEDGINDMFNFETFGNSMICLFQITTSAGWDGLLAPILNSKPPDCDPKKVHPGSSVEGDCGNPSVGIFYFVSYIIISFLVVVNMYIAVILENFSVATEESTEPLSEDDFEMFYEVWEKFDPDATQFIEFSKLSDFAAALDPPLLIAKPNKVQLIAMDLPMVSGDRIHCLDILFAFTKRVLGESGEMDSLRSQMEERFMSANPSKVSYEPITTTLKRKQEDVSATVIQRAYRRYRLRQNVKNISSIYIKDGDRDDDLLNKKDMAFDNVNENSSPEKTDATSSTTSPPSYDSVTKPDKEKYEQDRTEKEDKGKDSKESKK
human Nav1.8, sequence (Q9Y5Y9 whole entry): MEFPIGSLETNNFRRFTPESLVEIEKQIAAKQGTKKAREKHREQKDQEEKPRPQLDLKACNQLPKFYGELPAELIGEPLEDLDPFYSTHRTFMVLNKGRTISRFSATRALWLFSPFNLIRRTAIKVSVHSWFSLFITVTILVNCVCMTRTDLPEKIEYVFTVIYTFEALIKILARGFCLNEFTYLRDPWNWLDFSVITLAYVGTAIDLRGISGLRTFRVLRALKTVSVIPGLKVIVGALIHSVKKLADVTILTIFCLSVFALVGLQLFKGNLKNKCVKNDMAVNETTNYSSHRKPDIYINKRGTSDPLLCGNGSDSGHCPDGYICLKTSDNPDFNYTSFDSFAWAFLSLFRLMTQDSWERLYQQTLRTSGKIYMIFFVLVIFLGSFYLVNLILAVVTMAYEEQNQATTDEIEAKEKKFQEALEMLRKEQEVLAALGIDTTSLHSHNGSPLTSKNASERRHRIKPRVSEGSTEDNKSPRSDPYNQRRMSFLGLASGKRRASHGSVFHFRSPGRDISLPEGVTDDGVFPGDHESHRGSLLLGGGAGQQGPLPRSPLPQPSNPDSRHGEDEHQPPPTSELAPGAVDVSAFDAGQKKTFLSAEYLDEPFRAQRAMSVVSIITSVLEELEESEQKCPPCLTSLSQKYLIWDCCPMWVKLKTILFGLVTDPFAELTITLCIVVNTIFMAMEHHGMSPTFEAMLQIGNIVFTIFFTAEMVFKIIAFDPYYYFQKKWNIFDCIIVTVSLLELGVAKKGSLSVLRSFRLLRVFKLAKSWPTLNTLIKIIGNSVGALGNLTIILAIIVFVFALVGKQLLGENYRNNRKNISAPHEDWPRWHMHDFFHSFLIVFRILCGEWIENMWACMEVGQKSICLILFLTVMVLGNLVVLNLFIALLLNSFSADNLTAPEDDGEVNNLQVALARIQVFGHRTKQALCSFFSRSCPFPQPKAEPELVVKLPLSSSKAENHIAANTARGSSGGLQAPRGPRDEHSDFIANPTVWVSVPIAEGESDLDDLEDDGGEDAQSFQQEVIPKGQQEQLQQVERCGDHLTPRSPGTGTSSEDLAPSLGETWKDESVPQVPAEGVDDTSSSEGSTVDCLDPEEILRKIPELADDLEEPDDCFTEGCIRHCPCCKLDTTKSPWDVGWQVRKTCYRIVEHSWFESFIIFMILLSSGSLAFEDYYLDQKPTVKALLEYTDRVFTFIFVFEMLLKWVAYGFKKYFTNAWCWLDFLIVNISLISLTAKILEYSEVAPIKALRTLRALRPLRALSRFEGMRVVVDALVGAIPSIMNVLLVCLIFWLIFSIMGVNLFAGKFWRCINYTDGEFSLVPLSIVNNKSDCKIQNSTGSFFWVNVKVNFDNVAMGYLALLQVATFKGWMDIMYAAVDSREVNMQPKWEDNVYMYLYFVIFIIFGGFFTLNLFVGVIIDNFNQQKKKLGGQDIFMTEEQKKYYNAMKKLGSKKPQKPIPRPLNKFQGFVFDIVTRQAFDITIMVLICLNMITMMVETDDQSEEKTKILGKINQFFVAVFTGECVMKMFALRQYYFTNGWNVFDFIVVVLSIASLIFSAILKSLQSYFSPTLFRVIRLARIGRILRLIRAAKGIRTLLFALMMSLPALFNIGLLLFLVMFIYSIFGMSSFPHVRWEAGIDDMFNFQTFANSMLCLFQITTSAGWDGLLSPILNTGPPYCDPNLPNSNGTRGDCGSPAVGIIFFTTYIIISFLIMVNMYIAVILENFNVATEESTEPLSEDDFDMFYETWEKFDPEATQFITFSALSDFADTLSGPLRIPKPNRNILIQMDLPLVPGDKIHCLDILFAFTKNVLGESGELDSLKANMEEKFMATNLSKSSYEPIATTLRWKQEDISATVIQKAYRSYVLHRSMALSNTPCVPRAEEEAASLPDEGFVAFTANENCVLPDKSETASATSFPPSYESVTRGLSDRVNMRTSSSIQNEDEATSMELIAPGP

Compound | IC50 (human Nav1.7) [nM] | OA MPE (%) ([1]; OA dose 30 mg/kg) | OA MPE (%) ([1]; OA dose 10 mg/kg) | IC50 (human Nav1.8) [nM]
CC(C)(C)C(O)CN1CCN(c2cccc3c2cnn3-c2ccccc2F)C1=O (stereo not drawn) [Example 22, 1-[1-(2-fluorophenyl)-1H-indazol-4-yl]-3-(2-hydroxy-3,3-dimethylbutyl)imidazolidin-2-one] | 3000 | 38 | – | –
O=C(CN1CCCN(c2cccc3c2cnn3-c2ccccc2F)C1=O)N1CC[C@H](F)C1 [Example 23, 1-[1-(2-fluorophenyl)-1H-indazol-4-yl]-3-{2-[(3S)-3-fluoropyrrolidin-1-yl]-2-oxoethyl}tetrahydropyrimidin-2(1H)-one] | 1470 | 45 | – | –
Cc1csc(CN2CCN(c3cccc4c3cnn4-c3ccccc3F)C2=O)n1 [Example 24, 1-[1-(2-fluorophenyl)-1H-indazol-4-yl]-3-[(4-methyl-1,3-thiazol-2-yl)methyl]imidazolidin-2-one] | 338 | – | 62 | –
O=C1N(CC(=O)N2C[C@H]3C[C@@H]2CO3)CCN1c1cccc2c1cnn2-c1ccccc1F [Example 25, 1-[1-(2-fluorophenyl)-1H-indazol-4-yl]-3-{2-[(1R,4R)-2-oxa-5-azabicyclo[2.2.1]hept-5-yl]-2-oxoethyl}imidazolidin-2-one] | 499 | – | 24 | 8510
O=C1N(c2ncccn2)CCN1c1cccc2c1cnn2-c1ccccc1F [Example 28, 1-[1-(2-fluorophenyl)-1H-indazol-4-yl]-3-(pyrimidin-2-yl)imidazolidin-2-one] | 457 | – | 62 | –
O=C1N(Cc2nnco2)CCN1c1cccc2c1cnn2-c1ccccc1F [Example 29, 1-[1-(2-fluorophenyl)-1H-indazol-4-yl]-3-(1,3,4-oxadiazol-2-ylmethyl)imidazolidin-2-one] | 2190 | – | 46 | –
O=C1N(Cc2nnc(C3CC3)s2)CCN1c1cccc2c1cnn2-c1ccccc1F [Example 30, 1-[(5-cyclopropyl-1,3,4-thiadiazol-2-yl)methyl]-3-[1-(2-fluorophenyl)-1H-indazol-4-yl]imidazolidin-2-one] | 1300 | – | 80 | –
O=C1N(c2cccc3c2cnn3-c2ccccc2F)CCN1[C@@H]1CCOC1 [Example 32, 1-[1-(2-fluorophenyl)-1H-indazol-4-yl]-3-[(3R)-tetrahydrofuran-3-yl]imidazolidin-2-one] | 4230 | 65 | – | 2540
Cc1cnc(N2CCN(c3cccc4c3cnn4-c3ccccc3F)C2=O)nc1 [Example 33, 1-[1-(2-fluorophenyl)-1H-indazol-4-yl]-3-(5-methylpyrimidin-2-yl)imidazolidin-2-one] | 624 | – | 17 | –
O=C1N(Cc2nccs2)CCN1c1cccc2c1cnn2-c1ccccc1F [Example 34, 1-[1-(2-fluorophenyl)-1H-indazol-4-yl]-3-(1,3-thiazol-2-ylmethyl)imidazolidin-2-one] | 420 | – | 43 | –
O=C1N(Cc2cnccn2)CCN1c1cccc2c1cnn2-c1ccccc1F [Example 35, 1-[1-(2-fluorophenyl)-1H-indazol-4-yl]-3-(pyrazin-2-ylmethyl)imidazolidin-2-one] | 747 | – | 19 | –
O=C1N(Cc2ncco2)CCN1c1cccc2c1cnn2-c1ccc(F)cc1F [Example 36, 1-[1-(2,4-difluorophenyl)-1H-indazol-4-yl]-3-(1,3-oxazol-2-ylmethyl)imidazolidin-2-one] | 643 | – | 27 | –
O=C1N(Cc2cocn2)CCN1c1cccc2c1cnn2-c1ccc(F)cc1F [Example 37, 1-[1-(2,4-difluorophenyl)-1H-indazol-4-yl]-3-(1,3-oxazol-4-ylmethyl)imidazolidin-2-one] | 392 | – | 35 | –
C[C@H]1CN(c2cccc3c2cnn3-c2ccccc2F)C(=O)N1Cc1ncco1 [Example 38, (4S)-1-[1-(2-fluorophenyl)-1H-indazol-4-yl]-4-methyl-3-(1,3-oxazol-2-ylmethyl)imidazolidin-2-one] | 1390 | – | 33 | –
O=C1N(Cc2cscn2)CCN1c1cccc2c1cnn2-c1ccccc1F [Example 39, 1-[1-(2-fluorophenyl)-1H-indazol-4-yl]-3-(1,3-thiazol-4-ylmethyl)imidazolidin-2-one] | 301 | – | 38 | –
Cc1nnc(CN2CCN(c3cccc4c3cnn4-c3ccccc3F)C2=O)s1 [Example 40, 1-[1-(2-fluorophenyl)-1H-indazol-4-yl]-3-[(5-methyl-1,3,4-thiadiazol-2-yl)methyl]imidazolidin-2-one] | 3150 | – | 41 | –
Cc1cnc(CN2CCN(c3cccc4c3cnn4-c3ccccc3F)C2=O)o1 [Example 41, 1-[1-(2-fluorophenyl)-1H-indazol-4-yl]-3-[(5-methyl-1,3-oxazol-2-yl)methyl]imidazolidin-2-one] | 1570 | – | 47 | –
Cc1nccnc1CN1CCN(c2cccc3c2cnn3-c2ccccc2F)C1=O [Example 43, 1-[1-(2-fluorophenyl)-1H-indazol-4-yl]-3-[(3-methylpyrazin-2-yl)methyl]imidazolidin-2-one] | 915 | 71 | – | –
Cc1nnc(CN2CCN(c3cccc4c3cnn4-c3ccccc3F)C2=O)o1 [Example 44, 1-[1-(2-fluorophenyl)-1H-indazol-4-yl]-3-[(5-methyl-1,3,4-oxadiazol-2-yl)methyl]imidazolidin-2-one] | 2940 | 71 | – | –
CCc1cc(CN2CCN(c3cccc4c3cnn4-c3ccccc3F)C2=O)on1 [Example 45, 1-[(3-ethyl-1,2-oxazol-5-yl)methyl]-3-[1-(2-fluorophenyl)-1H-indazol-4-yl]imidazolidin-2-one] | 1120 | – | 43 | –
CCOc1nnc(CN2CCN(c3cccc4c3cnn4-c3ccccc3F)C2=O)s1 [Example 47, 1-[(5-ethoxy-1,3,4-thiadiazol-2-yl)methyl]-3-[1-(2-fluorophenyl)-1H-indazol-4-yl]imidazolidin-2-one] | 1490 | – | 19 | 3980
Cc1nc(CN2CCCN(c3cccc4c3cnn4-c3ccccc3F)C2=O)oc1C [Example 48, 1-[(4,5-dimethyl-1,3-oxazol-2-yl)methyl]-3-[1-(2-fluorophenyl)-1H-indazol-4-yl]tetrahydropyrimidin-2(1H)-one] | 2010 | – | 20 | 1140
O=C1N(Cc2nnc(C3CC3)o2)CCN1c1cccc2c1cnn2-c1ccccc1F [Example 49, 1-[(5-cyclopropyl-1,3,4-oxadiazol-2-yl)methyl]-3-[1-(2-fluorophenyl)-1H-indazol-4-yl]imidazolidin-2-one] | 2320 | – | 66 | 538
O=C1N(Cc2nnc(C3CCC3)o2)CCN1c1cccc2c1cnn2-c1ccccc1F [Example 50, 1-[(5-cyclobutyl-1,3,4-oxadiazol-2-yl)methyl]-3-[1-(2-fluorophenyl)-1H-indazol-4-yl]imidazolidin-2-one] | 1530 | – | 7 | 3080
CCS(=O)(=O)N1CC(N2CCN(c3cccc4c3cnn4-c3ccccc3F)C2=O)C1 [Example 51, 1-[1-(ethylsulfonyl)azetidin-3-yl]-3-[1-(2-fluorophenyl)-1H-indazol-4-yl]imidazolidin-2-one] | 3100 | 16 | – | 1140
O=C(CN1CCN(c2cccc3c2cnn3-c2ccccc2F)C1=O)N1CCC[C@@H](O)C1 [Example 52, 1-[1-(2-fluorophenyl)-1H-indazol-4-yl]-3-{2-[(3R)-3-hydroxypiperidin-1-yl]-2-oxoethyl}imidazolidin-2-one] | 2490 | 27 | – | 10100
